These are literature values, as cited in PMC7503629, “Synthesis and Biological Studies on Dinuclear Gold(I) Complexes with Di-(N-Heterocyclic Carbene) Ligands Functionalized with Carbohydrates” (Molecules, 2020).

On the set-up of the data set: method as in doi:10.1002/ejic.201700768. Particulars: attributed to low mitochondrial penetration; cited from earlier work.

With “[Au(magi)Cl] (magi = 1-methyl-3-(2,3,4,6-tetra-O-acetyl-β-D-glucopyranosyl)imidazole-2-ylidene)”, the “antiproliferative activity (in words)” value is given as “inertness”.
